Results on 28 compounds are retold here after patent US6410792B1, “Amide derivatives and methods for using the same as selective neuropeptide Y receptor antagonists” (Bayer Corporation, priority 1997, dated 2002).

Like-named read-outs stand apart in the source and are kept apart here. Some results are limits rather than exact numbers.

One assay has as its target T1, Y2 receptor (Homo sapiens, UniProt P49146).
T1 sequence (P49146 1-381): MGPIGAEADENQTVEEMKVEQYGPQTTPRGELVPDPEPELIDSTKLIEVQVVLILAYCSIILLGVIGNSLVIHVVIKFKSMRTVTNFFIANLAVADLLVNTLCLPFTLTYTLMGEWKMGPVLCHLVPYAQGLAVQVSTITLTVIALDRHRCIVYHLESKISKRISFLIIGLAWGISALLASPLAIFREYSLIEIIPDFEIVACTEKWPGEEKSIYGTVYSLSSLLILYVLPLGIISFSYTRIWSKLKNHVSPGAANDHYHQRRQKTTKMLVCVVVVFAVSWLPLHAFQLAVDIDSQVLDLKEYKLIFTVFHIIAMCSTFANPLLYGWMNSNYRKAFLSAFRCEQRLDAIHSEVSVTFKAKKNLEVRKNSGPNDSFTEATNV
Nature of the assay: Y2 receptor binding assay ([125I]PYY, membrane protein). To be noted: [125I]PYY binding, membrane protein; read-out: hNPY2 IC50. How it is done:
B. Human Y2 and Y4/PP1 Receptor Binding Assays
Binding assays were performed on GF/C Millipore 96-well plates pretreated with 0.02% polyethylenimine. The binding buffer for rat Y2 binding is Krebs-Ringer bicarbonate (pH 7.4) containing 0.01% BSA and 0.005% bacitracin. Samples consist of membrane protein, 25 pM [1251]PYY and drug dilution. Nonspecific binding is defined by 1 μM NPY. The binding buffer for human Y4/PP1 binding consists of 137 mM NaCl, 5.4 mM KCl, 0.44 mM KH2PO4, 1.26 mM CaCl2, 0.81 mM MgSO4, 20 mM HEPES, 1 mM dithiothreitol, 0.1% bacitracin, 100 mg/l streptomycin sulfate, 1 mg/l aprotinin, 10 mg/ml soybean trypsin inhibitor and 0.3% BSA, pH 7.4. Samples consist of membrane protein, 50 pM human [1251]human PP (hPP: NEN DuPont, Boston, Mass.) and drug dilution. 1 μM hPP is used to define nonspecific binding.
After a 2 hour incubation at room temperature with constant mixing, the samples are aspirated on a vacuum manifold, and rinsed with ice-cold binding buffer. The amount of radioactivity in each well is quantitated with either gamma counting or liquid scintillation.

In a further assay the target is T2, Human NPY5 receptor (Homo sapiens, UniProt Q15761).
T2 sequence (Q15761 1-445): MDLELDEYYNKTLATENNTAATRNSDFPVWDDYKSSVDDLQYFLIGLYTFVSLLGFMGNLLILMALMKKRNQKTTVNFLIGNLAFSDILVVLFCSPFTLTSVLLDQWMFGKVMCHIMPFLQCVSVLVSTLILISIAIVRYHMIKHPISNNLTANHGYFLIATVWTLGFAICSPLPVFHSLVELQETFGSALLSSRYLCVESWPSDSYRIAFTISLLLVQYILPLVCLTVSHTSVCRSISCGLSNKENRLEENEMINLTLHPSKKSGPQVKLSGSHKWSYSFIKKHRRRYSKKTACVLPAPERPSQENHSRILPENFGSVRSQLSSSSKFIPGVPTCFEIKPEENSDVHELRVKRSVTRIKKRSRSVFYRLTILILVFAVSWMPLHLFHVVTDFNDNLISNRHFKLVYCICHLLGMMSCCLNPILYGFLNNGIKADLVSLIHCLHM
Briefly: Human NPY5 receptor binding assay ([125I]PYY, membrane protein). In short, it runs like this:
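Competition against porcine [125I]PYY (75-100 pM) on receptor membranes, 2 h, room temperature, Tris-based pH 7.4 buffer with BSA and bacitracin. Bound radioactivity after filtration and ice-cold rinse counted by gamma or liquid scintillation; 1 μM PYY defines nonspecific binding.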

The mark [1] stands for this setting: [125I]PYY binding, read-out: hNPY5 IC50.

As to `CN(C)C1(C(N)=O)CCN(CC(=O)Nc2ccc(C3CCCCC3)cc2)CC1` [Compound 36, 1-[(4-Cyclohexyl-phenylcarbamoyl)-methyl]-4-dimethylamino-piperidine-4-carboxylic acid amide], the figures for the IC50 on Y2 receptor and at Human NPY5 receptor (setting [1]) were above 5 µM and 0.71 µM, respectively.
On the same counts, the results for `O=C(CN1CCC(CCCC2CCNCC2)CC1)Nc1ccc(C(=O)c2ccccc2)cc1` [Compound 37, N-(4-Benzoyl-phenyl)-2-[4-(3-piperidin-4-yl-propyl)-piperidin-1-yl]-acetamide] are above 5 µM and above 10 µM.
On the same counts, the results for `CC(=O)C1(c2ccccc2)CCN(CC(=O)Nc2ccc(C(=O)c3ccccc3)cc2)CC1` [Compound 86, 2-(4-Acetyl-4-phenyl-piperidin-1-yl)-N-(4-benzoyl-phenyl)-acetamide] are above 5 µM and 0.001 µM.
For `O=C(CN1CCC(N2CCCCC2)CC1)Nc1ccc(C2CCCCC2)cc1` [Compound 24, 2-[1,4′]Bipiperidinyl-1′-yl-N-(4-cyclohexyl-phenyl)-acetamide], in that order: above 5 µM and 2.9 µM.
In the case of “N-(4-Benzoyl-phenyl)-2-(4-benzyl-4-hydroxy-piperidin-1-yl)-acetamide [Compound 111]”, the IC50 (usually the concentration at which inhibition is half-maximal) on Y2 receptor was above 5 µM; at Human NPY5 receptor (setting [1]), 0.16 µM.
On the same counts, the results for `NC1CCN(CC(=O)Nc2ccc(C(=O)c3ccccc3)cc2)C1` (centres unmarked) [Compound 112, 2-(3-Amino-pyrrolidin-1-yl)-N-(4-benzoyl-phenyl)-acetamide] are above 5 µM and 3.9 µM.
Regarding `O=C(CN1C[C@H](O)C[C@H]1C(=O)O)Nc1ccc(C(=O)c2ccccc2)cc1` [Compound 109, (2S,4R)-1-[(4-Benzoyl-phenylcarbamoyl)-methyl]-4-hydroxy-pyrrolidine-2-carboxylic acid], the figures for the IC50 at Y2 receptor and on Human NPY5 receptor (setting [1]) were above 5 µM and above 10 µM, respectively.
For `O=C(CN(CCO)c1ccccc1)Nc1ccc(C2CCCCC2)cc1` [Compound 14, N-(4-cyclohexyl-phenyl)-2-[(2-hydroxy-ethyl)-phenyl-amino]-acetamide], in that order: above 5 µM and 1.8 µM.
For `O=C(CN1CCC[C@H]1C(=O)O)Nc1ccc(C(=O)c2ccccc2)cc1` [Compound 110, (2S)-1-[(4-Benzoyl-phenylcarbamoyl)-methyl]-pyrrolidine-2-carboxylic acid], the IC50 is above 5 µM on Y2 receptor and 8.7 µM on Human NPY5 receptor (setting [1]).
On the same counts, the results for `NC1CCN(CC(=O)Nc2ccc(C3CCCCC3)cc2)C1` (centres unmarked) [Compound 100, 2-(3-Amino-pyrrolidin-1-yl)-N-(4-cyclohexyl-phenyl)-acetamide] are above 5 µM and 2.4 µM.
On the same counts, the results for `CC1(C)CCN(CC(=O)Nc2ccc(C(=O)c3ccccc3)cc2)CC1` [Compound 51, N-(4-Benzoyl-phenyl)-2-(4,4-dimethyl-piperidin-1-yl)-acetamide] are above 5 µM and 3.3 µM.
For `CN(C)CC(=O)Nc1ccc(C2CCCCC2)cc1` [Compound 2, N-(4-Cyclohexyl-phenyl)-2-dimethylamino-acetamide], in that order: above 5 µM and 0.78 µM.
With `O=C(CN1CCN(c2ccccc2Cl)CC1)Nc1ccc(C2CCCCC2)cc1` [Compound 3, 2-[4-(2-Chloro-phenyl)-piperazin-1-yl]-N-(4-cyclohexyl-phenyl)-acetamide], the figures for the IC50 on Y2 receptor and at Human NPY5 receptor (setting [1]) were above 5 µM and 0.19 µM, respectively.
For `O=C(CN1CCC(O)(CCCc2ccccc2)CC1)Nc1ccc(C2CCCCC2)cc1` [Compound 61, N-(4-Cyclohexyl-phenyl)-2-[4-hydroxy-4-(3-phenyl-propyl)-piperidin-1-yl]-acetamide], the IC50 on Y2 receptor is above 5 µM; on Human NPY5 receptor (setting [1]), 9.5 µM.
On the same counts, the results for `O=C(CN1CCC(C(=O)N2CCCCC2)(c2ccccc2)CC1)Nc1ccc(C(=O)c2ccccc2)cc1` [Compound 73, N-(4-Benzoyl-phenyl)-2-[4-phenyl-4-(piperidine-1-carbonyl)-piperidin-1-yl]-acetamide] are above 5 µM and above 5 µM.
For “1-[(4 Benzoyl-phenylcarbamoyl)-methyl]-4-dimethylamino-piperidine-4-carboxylic acid amide [Compound 53]”, in that order: above 5 µM and 0.44 µM.
`O=C(CN1[C@@H](C(=O)O)CC[C@@H]1O)Nc1ccc(C(=O)c2ccccc2)cc1` [Compound 20, (5S,2R)-1-[(4-Benzoyl-phenylcarbamoyl)-methyl]-5-hydroxy-pyrrolidine-2-carboxylic acid]: the figures for the IC50 at Y2 receptor and at Human NPY5 receptor (setting [1]) were above 5 µM and 7.6 µM, respectively.
For `O=C(CN1CCC[C@H]1CN1CCCC1)Nc1ccc(C(=O)c2ccccc2)cc1` [Compound 78, N-(4-Benzoyl-phenyl)-2-(2S-pyrrolidin-1-ylmethyl-pyrrolidin-1-yl)-acetamide], in that order: above 5 µM and above 5 µM.
Consider `O=C(CN1CCC(O)(c2ccccc2)CC1)Nc1ccc(C(=O)c2ccccc2)cc1` [Compound 41, N-(4-Benzoyl-phenyl)-2-(4-hydroxy-4-phenyl-piperidin-1-yl)-acetamide], for which the IC50 at Y2 receptor is above 5 µM; at Human NPY5 receptor (hNPY5 IC50, [125I]PYY binding), 0.06 µM.
On to `O=C(CN1CCC(O)C1)Nc1ccc(C2CCCCC2)cc1` (centres unmarked) [Compound 92, N-(4-Cyclohexyl-phenyl)-2-(3-hydroxy-pyrrolidin-1-yl)-acetamide], for which the IC50 on Y2 receptor is above 5 µM; at Human NPY5 receptor (setting [1]), 1.3 µM.
On the same counts, the results for `COC(=O)[C@@H]1CCCN1CC(=O)Nc1ccc(C2CCCCC2)cc1` [Compound 96, (2S)-1-[(4-Cyclohexyl-phenylcarbamoyl)-methyl]-pyrrolidine-2-carboxylic acid methyl ester] are above 5 µM and 1.2 µM.
On the same counts, the results for `O=C(CN1CC=C(c2ccc(Cl)cc2)CC1)Nc1ccc(C(=O)c2ccccc2)cc1` [Compound 18, N-(4-Benzoyl-phenyl)-2-[4-(4-chloro-phenyl)-3,6-dihydro-2H-pyridin-1-yl]-acetamide] are above 5 µM and 5.2 µM.
On the same counts, the results for `O=C(CN1CCC(C(=O)c2ccc(F)cc2)CC1)Nc1ccc(C(=O)c2ccccc2)cc1` [Compound 121, N-(4-Benzoyl-phenyl)-2-[4-(4-fluoro-benzoyl)-piperidin-1-yl]-acetamide] are above 5 µM and 0.095 µM.
As to `O=C(CN1CCC[C@H]1C(=O)OCc1ccccc1)Nc1ccc(C(=O)c2ccccc2)cc1` [Compound 106, (2S)-1-[(4-Benzoyl-phenylcarbamoyl)-methyl]-pyrrolidine-2-carboxylic acid benzyl ester], the IC50 at Y2 receptor was above 5 µM; at Human NPY5 receptor (setting [1]) it was 3 µM.
On the same counts, the results for `O=C(CN(c1ccccn1)c1ccccn1)Nc1ccc(C(=O)c2ccccc2)cc1` [Compound 22, N-(4-Benzoyl-phenyl)-2-(di-pyridin-2-yl-amino)-acetamide] are above 5 µM and 9.9 µM.
For `O=C(CN1CCN(c2ccc(Cl)cc2)CC1)Nc1ccc(C(=O)c2ccccc2)cc1` [Compound 10, N-(4-Benzoyl-phenyl)-2-[4-(4-chloro-phenyl)-piperazin-1-yl]-acetamide], in that order: above 5 µM and 2.9 µM.
On the same counts, the results for `CC(=O)C1(c2ccccc2)CCN(CC(=O)Nc2ccc(C3CCCCC3)cc2)CC1` [Compound 87, 2-(4-Acetyl-4-phenyl-piperidin-1-yl)-N-(4-cyclohexyl-phenyl)-acetamide] are above 5 µM and 0.004 µM.
For `COC(=O)[C@@H]1CCCN1CC(=O)Nc1ccc(C(=O)c2ccccc2)cc1` [Compound 107, (2S)-1-[(4-Benzoyl-phenylcarbamoyl)-methyl]-pyrrolidine-2-carboxylic acid methyl ester], the IC50 on Y2 receptor is above 5 µM; at Human NPY5 receptor (setting [1]), 2.9 µM.
